These results are taken from US20090221829A1 (priority 2005, published 2009).

Assay [1] relates to Candida albicans(KCTC 1940), Aspergillus niger (ATCC 9642) and Saccharomyces cerevisiae. The assay is described as follows: Relative antifungal activity by agar dilution method (vs Miconazole).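 Also: scores 5 to 7 mean a lower fungicidal concentration than Miconazole so higher is more potent.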 The class given is cell-based. As to conditions: antifungal activity relative to Miconazole, agar dilution. The text has this: Novel compounds represented by the above chemical formula (I), and the relative activities in accordance with the agar dilution method in Sabouraud dextrose agar media, Czapek agar media and Yeast Extract-Peptone-Dextrose agar media for Candida albicans(KCTC 1940), Aspergillus niger (ATCC 9642) and Saccharomyces cerevisiae are described respectively in following Table 1.

Assay [2] concerns various kinds of Candida. The assay is described as follows: MIC (Minimal Inhibitory Concentration) data. The assay is classed as cell-based. Conditions: unit assumed.
In assay [3] the target is sterol-24-methyl transferase (Candida albicans, UniProt O74198). The class given is biochemical. As to conditions: in vitro, read-out: Relative Activity (IC50 class). The text has this: Moreover, the relative activity for sterol-24-methyl transferase of the above compound in Table 11 is described in Table 13.
Sequence of sterol-24-methyl transferase (O74198 whole entry): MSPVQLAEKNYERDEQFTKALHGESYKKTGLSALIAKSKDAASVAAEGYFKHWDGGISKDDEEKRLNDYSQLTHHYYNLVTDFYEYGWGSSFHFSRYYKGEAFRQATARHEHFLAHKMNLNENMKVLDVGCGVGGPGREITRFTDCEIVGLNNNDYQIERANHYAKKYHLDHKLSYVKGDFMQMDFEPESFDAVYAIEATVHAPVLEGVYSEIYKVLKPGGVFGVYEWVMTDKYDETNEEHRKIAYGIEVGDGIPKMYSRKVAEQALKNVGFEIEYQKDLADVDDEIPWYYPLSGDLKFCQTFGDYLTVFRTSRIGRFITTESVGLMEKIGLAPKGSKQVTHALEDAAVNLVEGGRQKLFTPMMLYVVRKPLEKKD

Turning to `COc1cc2cc[n+](Cc3cccc(OC)c3OCc3c(F)c(F)c(C(F)(F)F)c(F)c3F)c(CCc3ccc(C(C)(C)C)cc3)c2cc1OC.[Cl-]` [Compound No. 151, 1-(2-(4-t-butylphenyl))ethyl-2-(2-(2,3,5,6-tetrafluoro-4-trifluoromethylbenzyloxy)-3-methoxyphenyl)methyl-6,7-dimethoxyisoquinolinium chloride], in assay [1], the “Relative Activity” value was determined as 1. Also, the MIC is 3.12 µg/mL in assay [2] (C. albicans ATCC 11651); 3.12 µg/mL in assay [2] (C. albicans ATCC 28838); 6.25 µg/mL in assay [2] (C. albicans IFO 1385); 1.56 µg/mL in assay [2] (C. albicans OY-003); 3.12 µg/mL in assay [2] (C. albicans OY-019); 1.56 µg/mL in assay [2] (C. albicans U.K). Moreover, the MIC stood at 3.25 µg/mL in assay [2] (C. glabrata), 1.56 µg/mL in assay [2] (C. glulliermondi), 1.56 µg/mL in assay [2] (C. krusei (KCTC7273)) and 12.5 µg/mL in assay [2] (C. parapsilosis). Besides, the IC50 in assay [3] is less than 5 µM.
